Common to all, as to assay: growth of human tumour cells (NCI), 48 h
The subject of experiment [1] is OVCAR-4.
Experiment [2] relates to SF-268.
Experiment [3] deals with TK-10.
Experiment [4] relates to SF-539.
The test system of experiment [5] is Hs-578T.
Experiment [6] concerns NCI/ADR-RES.
Experiment [7] relates to HT-29.
Experiment [8] concerns NCI-H522.
Experiment [9] has as its system MOLT-4.
The test system of experiment [10] is OVCAR-3.
Experiment [11] relates to HCT-15.
The test system of experiment [12] is SK-OV-3.
Experiment [13] deals with HOP-92.
For experiment [14], the system named is HOP-62.
The test system of experiment [15] is OVCAR-5.
Experiment [16] relates to M14.
The test system of experiment [17] is SW-620.
Experiment [18] concerns HCC 2998.
Experiment [19] has as its system Malme-3M.

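The compound was tested at five concentrations on cells cultured in 96-well plates, with a 48-hour exposure period. Here, GI50 denotes the concentration required for 50% inhibition of growth.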 Active and inactive are the calls of the source. No stated cut-off is given here; in the data, active = GI50 up to about 1.1 µM and inactive = higher. Some results are limits rather than exact numbers.

As to `Cc1cc2c(cc1Cl)SC(NS(=O)(=O)c1ccc(Cl)cc1)=NS2(=O)=O`, the GI50 is 39.4 µM (inactive) in [1]; 85.9 µM (inactive) in experiment [2]; 30.3 µM (inactive) in [3]; 18.3 µM (inactive) in experiment [4]; 41.5 µM (inactive) in experiment [5]; > 100 µM (inactive) in [6]. Further, the GI50 was 47.4 µM (inactive) in experiment [7]; 21.7 µM (inactive) in [8]; 16.9 µM (inactive) in [9]; 19.3 µM (inactive) in experiment [10]; more than 100 µM in experiment [11]; > 100 µM (inactive) in experiment [12]. The GI50 was 16 µM (inactive) in experiment [13]; 98.6 µM (inactive) in [14]; 35.4 µM (inactive) in experiment [15]; 82.2 µM (inactive) in experiment [16]; 41.6 µM (inactive) in [17].

Consider `O=C(C1=CCC2(CC1)OCCO2)N(Cc1ccccc1)c1ccccc1I`, for which the GI50 in experiment [1] was 14.9 µM (inactive); in experiment [2], 13.4 µM (inactive); in experiment [3] it was 21.5 µM (inactive); in [5], 0.181 µM (active); in experiment [6], 15 µM (inactive); in [7], 17.9 µM (inactive). In addition, the GI50 in experiment [9] is 63.8 µM (inactive); in [10] it was 21.3 µM (inactive); in [11], 23 µM; in experiment [12] it was 32.1 µM (inactive); in experiment [13], 16.1 µM (inactive); in experiment [18], 16.8 µM (inactive). Moreover, the GI50 is 22.4 µM (inactive) in [14], 18.1 µM (inactive) in [15], 16.9 µM (inactive) in experiment [16] and 29.7 µM (inactive) in [17].

For `Clc1ccc(C2=NNC(c3cccc(Cl)c3)C2)cc1` (stereo unspecified), the GI50 was 32.8 µM (inactive) in experiment [1]; 29.3 µM (inactive) in [2]; 26.4 µM (inactive) in experiment [3]; 37.2 µM (inactive) in [4]; 28.8 µM (inactive) in experiment [5]; 26.5 µM (inactive) in experiment [6]. Also, the GI50 is 36.9 µM (inactive) in experiment [7]; 2.98 µM (inactive) in [8]; 27.1 µM (inactive) in [9]; 28.6 µM (inactive) in experiment [10]; 22 µM (inactive) in experiment [12]; 10.8 µM (inactive) in experiment [13]. Further, the GI50 in experiment [19] was 28.1 µM (inactive); in experiment [14], 32.2 µM (inactive); in [15] it was 44.8 µM (inactive); in [16] it was 53.7 µM (inactive); in [17], 23.2 µM (inactive).

On to `Clc1cc2c(cc1Cl)CC(NCCN1CCCC1)CC2` (stereo unspecified), for which the GI50 in [1] was 17.2 µM (inactive); in experiment [2] it was 15.3 µM (inactive); in [3] it was 14.4 µM (inactive); in experiment [4], 13.6 µM (inactive); in experiment [5], 21.2 µM (inactive); in experiment [6], 13.7 µM (inactive). Further, the GI50 is 4.35 µM (inactive) in experiment [7]; 17.1 µM (inactive) in [8]; 20.5 µM (inactive) in experiment [9]; 17.1 µM (inactive) in [10]; 12.9 µM in experiment [11]; 17.7 µM (inactive) in [12]. Besides, the GI50 is 2.7 µM (inactive) in experiment [18]; 10.8 µM (inactive) in [19]; 16 µM (inactive) in experiment [14]; 14.6 µM (inactive) in experiment [15]; 12 µM (inactive) in experiment [16]; 18.9 µM (inactive) in [17].

As to `CN(N=O)c1ccc(/C=C/c2ccnc3ccccc23)cc1`, the GI50 is > 100 µM (inactive) in experiment [1]; 79.8 µM (inactive) in experiment [2]; 29.4 µM (inactive) in experiment [3]; 88.5 µM (inactive) in experiment [4]; > 100 µM (inactive) in experiment [5]; 83.4 µM (inactive) in [6]. Also, the GI50 in [7] was 43.3 µM (inactive); in experiment [8], 46.6 µM (inactive); in experiment [9] it was 34 µM (inactive); in experiment [10] it was 95.1 µM (inactive); in experiment [11], 54.2 µM; in experiment [12], > 100 µM (inactive). Further, the GI50 is > 100 µM (inactive) in experiment [13]; 86.3 µM (inactive) in experiment [19]; 78.3 µM (inactive) in experiment [14]; > 100 µM (inactive) in experiment [15]; 93.1 µM (inactive) in [16]; 73.3 µM (inactive) in [17].

Consider `O=C(c1ccccc1)c1ccc2[nH]c(-c3c(Cl)c(Cl)c(Cl)c(Cl)c3C(=O)N/N=C/c3cccc(Oc4ccccc4)c3)nc2c1`, for which the GI50 in experiment [1] was 99.3 µM (inactive); in experiment [2] it was 76.7 µM (inactive); in [3], > 100 µM (inactive); in experiment [4], > 100 µM (inactive); in [5], > 100 µM (inactive); in experiment [6], 95.1 µM (inactive). For the same compound, the GI50 is > 100 µM (inactive) in [7]; 45 µM (inactive) in [8]; 50.4 µM (inactive) in experiment [9]; 75.7 µM (inactive) in experiment [10]; 45.4 µM in experiment [11]; > 100 µM (inactive) in [12]. Moreover, the GI50 in experiment [13] was 55.7 µM (inactive); in [19], > 100 µM (inactive); in [14], 65.2 µM (inactive); in experiment [15] it was > 100 µM (inactive); in [16], > 100 µM (inactive); in experiment [17] it was 56.1 µM (inactive).

For the compound `CCCCCCCCCCCCCCCC(=O)Nc1ccn(C2CC(OP(=O)(O)OCC3OC(n4cc(F)c(=O)[nH]c4=O)CC3OC(C)=O)C(CO)O2)c(=O)n1` (stereo unspecified), the GI50 is 44.7 µM (inactive) in [1]; 0.528 µM (active) in experiment [2]; > 64 µM (inactive) in experiment [3]; 0.07 µM (active) in experiment [4]; 12.1 µM (inactive) in experiment [5]; 11.4 µM (inactive) in experiment [6]. In addition, the GI50 in experiment [7] was 7.62 µM (inactive); in experiment [8], 9.04 µM (inactive); in experiment [9] it was 7.55 µM (inactive); in experiment [10] it was > 53.2 µM (inactive); in experiment [11], 14.7 µM; in experiment [12], > 21.2 µM (inactive). For the same compound, the GI50 in experiment [14] is 0.351 µM (active); in experiment [15] it was > 41.8 µM (inactive); in experiment [16], 11.4 µM (inactive); in experiment [17] it was 22.9 µM (inactive).

On to `COC(=O)[C@H](Cc1c[nH]c2ccccc12)NP(=O)(O)OCC1C=CC(n2cc(C)c(=O)[nH]c2=O)O1` (stereo partly specified), for which the GI50 in experiment [1], in [2], in experiment [5], in experiment [6], in [7] and in experiment [9] was > 100 µM (inactive) each time. Besides, the GI50 is > 100 µM (inactive) in [10]; more than 100 µM in experiment [11]; > 100 µM (inactive) in experiment [13]; > 100 µM (inactive) in [18]; > 100 µM (inactive) in experiment [14]; > 100 µM (inactive) in [17].

`O=C(COc1ccc(Cl)cc1Cl)N/N=C/C=C/c1ccc([N+](=O)[O-])o1`: the GI50 in [1] was 4.35 µM (inactive); in [2] it was 29.4 µM (inactive); in experiment [3], 7.67 µM (inactive); in [4], 7.31 µM (inactive); in experiment [5] it was 1.87 µM (inactive); in experiment [6], 11.9 µM (inactive). For the same compound, the GI50 was 7.01 µM (inactive) in [7]; 1.04 µM (active) in experiment [8]; 2.28 µM (inactive) in experiment [9]; 4.59 µM (inactive) in experiment [10]; 3.37 µM in [11]; 14.6 µM (inactive) in experiment [12]. Moreover, the GI50 is 2.8 µM (inactive) in [19]; 15.1 µM (inactive) in experiment [14]; > 100 µM (inactive) in experiment [15]; 2.72 µM (inactive) in experiment [16]; 5.37 µM (inactive) in experiment [17].

Regarding `COC1CCN(N(C)C)O1` (stereo unspecified), the GI50 in experiment [1], in [2], in [3], in experiment [5], in experiment [6] and in experiment [7] was > 100 µM (inactive) each time. Moreover, the GI50 in experiment [8] was > 100 µM (inactive); in experiment [9], > 100 µM (inactive); in experiment [10] it was > 100 µM (inactive); in experiment [11], more than 100 µM; in experiment [18], > 100 µM (inactive); in experiment [19], > 100 µM (inactive). The GI50 in experiment [14], in [15], in [16] and in experiment [17] was > 100 µM (inactive) in each case.

As to `O=C(CC(=O)Nc1ccccc1)N/N=C/c1cc(/N=N/c2ccc(Br)cc2)ccc1O`, the GI50 in experiment [1] is 2.09 µM (inactive); in experiment [2], 4.5 µM (inactive); in experiment [3], 4.2 µM (inactive); in [4] it was 4.05 µM (inactive); in experiment [5] it was > 10 µM (inactive); in experiment [6] it was 2.88 µM (inactive). The GI50 in [9] is 1.35 µM (inactive); in experiment [11], 3.33 µM; in [12], 8.87 µM (inactive); in experiment [13] it was > 10 µM (inactive); in [18], 3.25 µM (inactive); in experiment [19] it was 5.93 µM (inactive). The GI50 is 5.3 µM (inactive) in experiment [14], 6.37 µM (inactive) in experiment [16] and 4.84 µM (inactive) in experiment [17].

In the case of `O=C(c1ccccc1)c1ccc(COc2ccc(C(c3c(O)c4ccccc4oc3=O)c3c(O)c4ccccc4oc3=O)cc2)cc1`, the GI50 was 30.2 µM (inactive) in experiment [1]; 31.9 µM (inactive) in [2]; 17.1 µM (inactive) in experiment [3]; 23.9 µM (inactive) in experiment [4]; 29.4 µM (inactive) in experiment [5]; 19.5 µM (inactive) in [6]. Also, the GI50 in [7] was 18.3 µM (inactive); in experiment [8], 18.2 µM (inactive); in [9] it was 18.7 µM (inactive); in experiment [10], 18.9 µM (inactive); in [11], 37.3 µM; in experiment [12], 19.2 µM (inactive). The GI50 is 18.5 µM (inactive) in experiment [18], 20.5 µM (inactive) in experiment [14], 18.9 µM (inactive) in experiment [15] and 25.7 µM (inactive) in experiment [17].

Source of the values: ChEMBL document CHEMBL1201862, “PubChem BioAssay data set” (2004).
